Measured values as given in ChEMBL document CHEMBL3797106, “Potent and Selective Agonists of Sphingosine 1-Phosphate 1 (S1P1): Discovery and SAR of a Novel Isoxazole Based Series” (J Med Chem, 2016).
Active and inactive are the calls of the source. The calls are words filed in the database; no cut-off is given here.

Assays:
Mus musculus [1] = assay: Induction of delay in disease onset in po dosed C57BL/6 mouse experimental autoimmune encephalomyelitis model of multiple sclerosis administered as qd for 24 days started from day of immunization measured 3 times per week of compound dosing; type: functional, organism-based
[2] = Volume of distribution at steady state in cynomolgus monkey at 2 mg/kg, iv; type: ADME, organism-based, Macaca fascicularis; conditions: in vivo, read-out: Vdss
[3] = Mean residence time in cynomolgus monkey at 2 mg/kg, iv; type: ADME, organism-based, Macaca fascicularis; conditions: in vivo
Mus musculus [4] = assay: AUC in mouse at 10 mg/kg, po; type: ADME, organism-based; conditions: in vivo
Rattus norvegicus [5] = assay: Reduction of blood lymphocyte level in Lewis rat at 1 mg/kg, po measured at 4 hrs by hematology analyzer relative to vehicle-treated control; type: functional; design: scale not given: the % may be the effect or the level left
[6] = AUC in rat at 5 mg/kg, po; type: ADME, organism-based; conditions: in vivo
Cytochrome P450 3A4 = Cytochrome P450 3A4 (Homo sapiens, UniProt P08684); assay: Inhibition of CYP3A4 (unknown origin); type: ADME
Sequence of Cytochrome P450 3A4 (P08684 whole entry): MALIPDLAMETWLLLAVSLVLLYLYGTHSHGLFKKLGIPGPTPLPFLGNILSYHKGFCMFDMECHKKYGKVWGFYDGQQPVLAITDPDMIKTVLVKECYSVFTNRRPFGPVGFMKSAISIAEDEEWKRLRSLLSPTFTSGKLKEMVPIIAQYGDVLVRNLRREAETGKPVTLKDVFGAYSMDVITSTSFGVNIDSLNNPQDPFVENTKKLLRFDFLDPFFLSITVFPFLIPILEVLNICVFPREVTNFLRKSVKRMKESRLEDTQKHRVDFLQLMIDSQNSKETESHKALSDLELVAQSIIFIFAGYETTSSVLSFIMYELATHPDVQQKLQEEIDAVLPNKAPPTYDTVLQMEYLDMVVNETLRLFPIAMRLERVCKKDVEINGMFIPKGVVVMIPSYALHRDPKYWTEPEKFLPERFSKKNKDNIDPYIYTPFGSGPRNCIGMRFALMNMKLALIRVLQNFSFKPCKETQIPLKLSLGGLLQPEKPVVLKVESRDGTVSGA

[7] = Plasma concentration in Lewis rat at 1 mg/kg, po measured at 4 hrs; type: ADME, organism-based
[8] = target: Sphingosine 1-phosphate receptor 1 (Homo sapiens, UniProt P21453); assay: Induction of internalization of C-terminal GFP-fused human S1P1 receptor expressed in CHO […] at 4.6 nM after 50 mins relative to control; type: cell-based
Sequence of Sphingosine 1-phosphate receptor 1 (P21453 whole entry, the tested form may be a part): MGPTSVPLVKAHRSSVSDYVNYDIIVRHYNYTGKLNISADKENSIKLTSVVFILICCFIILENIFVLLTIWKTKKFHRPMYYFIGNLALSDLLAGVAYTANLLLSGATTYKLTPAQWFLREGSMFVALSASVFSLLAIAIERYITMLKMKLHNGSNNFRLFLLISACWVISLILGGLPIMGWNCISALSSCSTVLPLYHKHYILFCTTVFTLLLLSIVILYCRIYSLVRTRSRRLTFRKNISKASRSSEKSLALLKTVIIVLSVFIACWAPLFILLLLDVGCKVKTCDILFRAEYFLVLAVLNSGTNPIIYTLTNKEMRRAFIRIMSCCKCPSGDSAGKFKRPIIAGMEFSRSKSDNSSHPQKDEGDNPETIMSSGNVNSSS

Cytochrome P450 2C8 = target: T1, Cytochrome P450 2C8 (Homo sapiens, UniProt P10632); assay: Inhibition of CYP2C8 (unknown origin); type: ADME
T1 sequence (P10632 whole entry): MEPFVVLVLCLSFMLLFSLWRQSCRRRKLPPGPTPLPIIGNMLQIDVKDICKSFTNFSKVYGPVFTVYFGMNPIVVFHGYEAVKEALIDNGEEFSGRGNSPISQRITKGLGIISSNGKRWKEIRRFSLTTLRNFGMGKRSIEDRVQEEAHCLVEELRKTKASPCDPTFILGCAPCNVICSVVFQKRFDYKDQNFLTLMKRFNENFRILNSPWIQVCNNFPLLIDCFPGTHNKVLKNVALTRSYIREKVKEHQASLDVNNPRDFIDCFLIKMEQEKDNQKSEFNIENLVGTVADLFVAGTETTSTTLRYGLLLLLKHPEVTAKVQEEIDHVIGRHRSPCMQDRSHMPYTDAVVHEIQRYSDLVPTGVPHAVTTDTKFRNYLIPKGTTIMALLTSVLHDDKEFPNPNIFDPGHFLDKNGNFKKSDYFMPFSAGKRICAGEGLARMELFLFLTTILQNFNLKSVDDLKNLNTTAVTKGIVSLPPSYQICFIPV

Rattus norvegicus [9] = assay: Clearance in rat at 2 mg/kg, iv relative to hepatic blood flow; type: ADME, organism-based; conditions: in vivo
[10] = Oral bioavailability in cynomolgus monkey at 5 mg/kg; type: ADME, organism-based, Macaca fascicularis; conditions: in vivo
[11] = Cmax in mouse at 10 mg/kg, po; type: ADME, organism-based; design: dose 10 mg/kg, route oral; conditions: in vivo
[12] = Cmax in rat at 5 mg/kg, po; type: ADME, organism-based; design: dose 5 mg/kg, route oral; conditions: in vivo
[13] = Half life in dog at 1 mg/kg, iv; type: ADME, organism-based, Canis lupus familiaris; conditions: in vivo
[14] = Half life in rat at 2 mg/kg, iv; type: ADME, organism-based; conditions: in vivo
[15] = AUC in cynomolgus monkey at 5 mg/kg, po; type: ADME, organism-based, Macaca fascicularis; conditions: in vivo
Cytochrome P450 2C9 = Cytochrome P450 2C9 (Homo sapiens, UniProt P11712); assay: Inhibition of CYP2C9 (unknown origin); type: ADME
Sequence of Cytochrome P450 2C9 (P11712 whole entry): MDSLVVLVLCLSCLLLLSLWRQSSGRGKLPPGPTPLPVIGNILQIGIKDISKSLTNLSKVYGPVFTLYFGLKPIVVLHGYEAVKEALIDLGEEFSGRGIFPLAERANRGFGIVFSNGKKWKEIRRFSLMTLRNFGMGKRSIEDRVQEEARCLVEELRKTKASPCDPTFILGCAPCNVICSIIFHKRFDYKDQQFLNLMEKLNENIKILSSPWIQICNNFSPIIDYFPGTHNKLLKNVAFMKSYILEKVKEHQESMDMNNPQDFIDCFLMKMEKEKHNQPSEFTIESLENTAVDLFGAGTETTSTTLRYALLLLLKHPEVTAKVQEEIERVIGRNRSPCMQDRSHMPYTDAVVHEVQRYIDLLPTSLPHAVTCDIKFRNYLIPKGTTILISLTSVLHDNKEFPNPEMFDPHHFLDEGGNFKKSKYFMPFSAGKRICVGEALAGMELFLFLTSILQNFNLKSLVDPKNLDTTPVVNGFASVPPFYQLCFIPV

Rattus norvegicus [16] = assay: Antiarthritic activity in complete Freund's adjuvant-induced Lewis rat arthritis model assessed as suppression of paw swelling at 0.5 to 3 mg/kg, po qd for 21 days started from day of immunization measured 3 times per week of compound dosing by water displacement plethysmometry; type: functional, organism-based
[17] = Cmax in dog at 1 mg/kg, po; type: ADME, organism-based, Canis lupus familiaris; design: dose 1 mg/kg, route oral; conditions: in vivo
[18] = Half life in mouse at 2 mg/kg, iv; type: ADME, organism-based; conditions: in vivo
Rattus norvegicus [19] = assay: Antiarthritic activity in po dosed complete Freund's adjuvant-induced Lewis rat arthritis model assessed as inhibition of paw inflammation administered as qd for 21 days started from day of immunization; type: functional, organism-based
[20] = Plasma protein binding in rat; type: ADME, cell-free; conditions: read-out: PPB (converted)
Rattus norvegicus [21] = assay: Ratio of Cmax to Cmin in rat at 5 mg/kg, po; type: ADME, organism-based; conditions: in vivo
[22] = Plasma concentration in Lewis rat at 1 mg/kg, po measured at 24 hrs; type: ADME, organism-based
[23] = Dissociation constant, pKa of the compound; type: physicochemical
Cytochrome P450 2D6 = Cytochrome P450 2D6 (Homo sapiens, UniProt P10635); assay: Inhibition of CYP2D6 (unknown origin); type: ADME
Sequence of Cytochrome P450 2D6 (P10635 whole entry): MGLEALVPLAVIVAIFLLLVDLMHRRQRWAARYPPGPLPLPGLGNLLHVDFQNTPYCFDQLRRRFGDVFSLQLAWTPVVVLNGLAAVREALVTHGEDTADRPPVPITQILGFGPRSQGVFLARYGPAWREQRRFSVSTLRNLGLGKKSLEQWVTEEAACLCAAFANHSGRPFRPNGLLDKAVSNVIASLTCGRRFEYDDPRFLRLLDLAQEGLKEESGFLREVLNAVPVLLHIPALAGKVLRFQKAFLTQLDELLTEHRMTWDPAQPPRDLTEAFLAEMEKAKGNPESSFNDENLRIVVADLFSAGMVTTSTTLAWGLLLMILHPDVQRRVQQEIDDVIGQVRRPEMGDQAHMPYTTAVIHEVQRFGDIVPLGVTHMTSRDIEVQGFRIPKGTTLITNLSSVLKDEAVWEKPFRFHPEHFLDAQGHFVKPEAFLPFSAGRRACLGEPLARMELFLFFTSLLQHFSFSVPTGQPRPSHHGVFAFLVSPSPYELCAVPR

[24] = Plasma protein binding in mouse; type: ADME, cell-free; conditions: read-out: PPB
[25] = Tmax in cynomolgus monkey at 5 mg/kg, po; type: ADME, organism-based, Macaca fascicularis; conditions: in vivo
[26] = Permeability of the compound at pH 7.4 by PAMPA; type: ADME; conditions: read-out: permeability
[27] = Mean residence time in dog at 1 mg/kg, iv; type: ADME, organism-based, Canis lupus familiaris; conditions: in vivo
Mus musculus [28] = assay: Clearance in mouse at 2 mg/kg, iv relative to hepatic blood flow; type: ADME, organism-based; conditions: in vivo
Mus musculus [29] = assay: Oral bioavailability in mouse at 10 mg/kg; type: ADME, organism-based; conditions: in vivo
Mus musculus [30] = assay: Ratio of Cmax to Cmin in mouse at 10 mg/kg, po; type: ADME, organism-based; conditions: in vivo
Cytochrome P450 2B6 = target: T2, Cytochrome P450 2B6 (Homo sapiens, UniProt P20813); assay: Inhibition of CYP2B6 (unknown origin); type: ADME
T2 sequence (P20813 whole entry): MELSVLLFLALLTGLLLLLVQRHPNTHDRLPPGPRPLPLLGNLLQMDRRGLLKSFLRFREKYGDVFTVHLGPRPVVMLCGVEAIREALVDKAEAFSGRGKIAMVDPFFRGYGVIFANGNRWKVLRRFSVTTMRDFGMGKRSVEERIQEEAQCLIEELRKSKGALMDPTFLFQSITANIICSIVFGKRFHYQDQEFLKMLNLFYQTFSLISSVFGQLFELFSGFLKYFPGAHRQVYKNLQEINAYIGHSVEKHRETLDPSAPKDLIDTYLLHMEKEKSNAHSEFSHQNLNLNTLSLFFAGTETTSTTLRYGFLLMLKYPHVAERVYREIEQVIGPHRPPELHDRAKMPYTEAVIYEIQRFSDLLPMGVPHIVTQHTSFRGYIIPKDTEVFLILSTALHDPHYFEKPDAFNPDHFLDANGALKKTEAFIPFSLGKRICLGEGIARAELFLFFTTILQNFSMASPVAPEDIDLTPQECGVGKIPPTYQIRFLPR

Plasma = assay: Ratio drug level in Lewis rat plasma at 0.03 mg/kg, po at 4 hrs to drug level in Lewis rat plasma at 0.03 mg/kg, po at 24 hrs; type: ADME, organism-based; conditions: in vivo
[31] = Cmax in cynomolgus monkey at 5 mg/kg, po; type: ADME, organism-based, Macaca fascicularis; design: dose 5 mg/kg, route oral; conditions: in vivo
[32] = AUC in dog at 1 mg/kg, po; type: ADME, organism-based, Canis lupus familiaris; conditions: in vivo
Rattus norvegicus [33] = assay: Antiarthritic activity in po dosed complete Freund's adjuvant-induced Lewis rat arthritis model assessed as inhibition of bone resorption administered as qd for 21 days started from day of immunization; type: functional, organism-based
[34] = Plasma concentration in Lewis rat at 0.3 mg/kg, po measured at 4 hrs; type: ADME, organism-based
[35] = Plasma protein binding in monkey; type: ADME, cell-free, Macaca mulatta; conditions: rhesus monkey, read-out: PPB (converted)
[36] = Volume of distribution at steady state in dog at 1 mg/kg, iv; type: ADME, organism-based, Canis lupus familiaris; conditions: in vivo, read-out: Vdss

O=C(O)C1CN(Cc2ccc(-c3noc(-c4onc(-c5ccccc5)c4C(F)(F)F)n3)cc2)C1
Activity (Mus musculus [1]): Dose-dependent effect
Vd [2]: 0.6 L/kg
MRT [3]: 2.2 h
AUC (Mus musculus [4]): 250 µM·h
Activity (Rattus norvegicus [5]): 78%
AUC [6]: 44 µM·h
IC50 (Cytochrome P450 3A4): > 40 µM
concentration at 4 h [7]: 2100 nM
Activity [8]: > 90%
IC50 (Cytochrome P450 2C8): > 40 µM
CL (Rattus norvegicus [9]): 2.4%
bioavailability [10]: 70%
Cmax [11]: 31000 nM
Cmax [12]: 3900 nM
half-life [13]: 7.4 h
half-life [14]: 10 h
AUC [15]: 25 µM·h
IC50 (Cytochrome P450 2C9): > 40 µM
Activity (Rattus norvegicus [16]): Active
Cmax [17]: 1300 nM
half-life [18]: 9.8 h
inhibition (Rattus norvegicus [19]): Dose-dependent effect
fraction unbound [20]: 0.006
Ratio (Rattus norvegicus [21]): 6
concentration at 24 h [22]: 700 nM
pKa [23]: 3.7
IC50 (Cytochrome P450 2D6): > 40 µM
fraction unbound [24]: 0.001
Tmax [25]: 1 h
Papp [26]: 103 ×10⁻⁶ cm/s
MRT [27]: 8.9 h
CL (Mus musculus [28]): 0.3%
F (Mus musculus [29]): 71%
Ratio (Mus musculus [30]): 2
IC50 (Cytochrome P450 2B6): > 40 µM
Ratio (Plasma): 5
Cmax [31]: 4000 nM
AUC [32]: 11 µM·h
inhibition (Rattus norvegicus [33]): Dose-dependent effect
concentration at 4 h [34]: 180 nM
fraction unbound [35]: 0.007
Vd [36]: 0.7 L/kg
